Among the test systems are 786-0 renal; HCT-116 colon; PC-3 prostate; A549 NSCLC; MOLT-4 leukemia; HL-60(TB) leukemia; SW-620 colon; HCT-15 colon; U251 CNS; CCRF-CEM leukemia.
What all share (assay): NCI anticancer screen, dose series, 48 h

Where “and” joins values, the source holds several entries; their conditions need not be identical. Equal entries are not always repeated.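 Dose response: 5 concentrations. Exposure: 48 h. Format: 96-well plates. Endpoint: linear interpolation; highest concentration if not reached. At the GI50, growth is halved. At the TGI there is no net growth.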 A value given as a limit tells only on which side of the number the result lay.

With `COc1ccc(/C=C/C(=O)c2cc(OC)c(OC)c(OC)c2)cc1OCc1cn(Cc2ccc(F)cc2)nn1`, the GI50 with 786-0 renal was 4.44 µM; with HCT-116 colon, 2.38 µM; in the test on PC-3 prostate it was 2.66 µM; with A549 NSCLC, 2.63 µM; in the test with MOLT-4 leukemia it was 3.97 µM; in the test on HL-60(TB) leukemia it was 3.31 µM. Besides, the GI50 with SW-620 colon was 3.16 µM; with HCT-15 colon, 2.04 µM; with U251 CNS it was 2.94 µM; in the test with CCRF-CEM leukemia, 2.14 µM. In addition, the TGI with 786-0 renal was over 100 µM; in the test with HCT-116 colon, 10.7 µM; with PC-3 prostate it was over 100 µM; in the test with A549 NSCLC it was 9.13 µM; in the test on MOLT-4 leukemia, 68.5 µM; with HL-60(TB) leukemia, 9.07 µM. In addition, the TGI with SW-620 colon was over 100 µM; with HCT-15 colon, over 100 µM; with U251 CNS, 19.4 µM; with CCRF-CEM leukemia, 8.66 µM.
Turning to `C=C1C(=O)O[C@H]2[C@H]1CC/C(CNC(=O)/C=C/c1cc(OC)c(OC)c(OC)c1)=C\CC[C@@]1(C)O[C@@H]21`, the GI50 in the test on 786-0 renal is 1.29 µM; with HCT-116 colon, 0.76 µM; in the test on PC-3 prostate, 6.24 µM; with A549 NSCLC it was 8.04 µM; in the test on MOLT-4 leukemia, 2.09 µM; in the test on HL-60(TB) leukemia it was 0.925 µM. Further, the GI50 is 0.615 µM with SW-620 colon, 2.96 µM in the test on HCT-15 colon, 4.23 µM in the test on U251 CNS and 0.478 µM in the test on CCRF-CEM leukemia. Moreover, the TGI worked out at 2.9 µM in the test with 786-0 renal; 2.1 µM with HCT-116 colon; 20 µM with PC-3 prostate; 23.7 µM in the test with A549 NSCLC; 6.22 µM in the test with MOLT-4 leukemia; 3.3 µM in the test on HL-60(TB) leukemia. Further, the TGI with SW-620 colon amounted to 2.49 µM; with HCT-15 colon, 13.5 µM; in the test on U251 CNS it was 16.4 µM; with CCRF-CEM leukemia, 4.37 µM.
Regarding `CCCCON(OC(=O)c1ccc2ccccc2c1)C(=O)c1ccccc1`, the GI50 in the test on 786-0 renal is 73.4 µM; in the test with HCT-116 colon, 34.8 µM; with PC-3 prostate, over 100 µM; in the test with A549 NSCLC, over 100 µM; in the test with MOLT-4 leukemia, 29.2 µM; in the test with HL-60(TB) leukemia, 91 µM. In addition, the GI50 in the test with SW-620 colon is 36.3 µM; with HCT-15 colon it was over 100 µM; with U251 CNS, over 100 µM; in the test on CCRF-CEM leukemia, 21.4 µM. For the same molecule, the TGI with 786-0 renal was over 100 µM; in the test on HCT-116 colon, over 100 µM; in the test on PC-3 prostate, over 100 µM; with A549 NSCLC it was over 100 µM; in the test on MOLT-4 leukemia, 68.4 µM; in the test on HL-60(TB) leukemia it was over 100 µM. The TGI was over 100 µM with SW-620 colon, over 100 µM with HCT-15 colon, over 100 µM with U251 CNS and 57.3 µM with CCRF-CEM leukemia.
With `C[C@]12CC[C@@H]3c4ccc(OC(=O)N(CCCl)CCCl)cc4CC[C@H]3[C@@H]1CC[C@@H]2O`, the GI50 in the test with 786-0 renal was 2.83 µM; with HCT-116 colon, 1.6 µM; in the test on PC-3 prostate it was 3.02 µM; in the test with A549 NSCLC, 2.46 µM; in the test on MOLT-4 leukemia, 1.78 µM; in the test on HL-60(TB) leukemia it was 0.731 µM. For the same molecule, the GI50 is 1.58 µM with SW-620 colon, 0.875 µM with HCT-15 colon, 2.58 µM in the test with U251 CNS and 1.21 µM with CCRF-CEM leukemia. Further, the TGI in the test on 786-0 renal was 13.7 µM; with HCT-116 colon it was 10.8 µM; in the test with PC-3 prostate, over 40.2 µM; with MOLT-4 leukemia, 8.15 µM; in the test on U251 CNS, 13.8 µM and 26.9 µM; in the test with CCRF-CEM leukemia, 6.83 µM and 3.45 µM.
Turning to `COc1ncnc2c(-c3ccccc3)cn(COCc3ccccc3)c12`, the GI50 was 4.55 µM with 786-0 renal; 2.67 µM with HCT-116 colon; 2.72 µM with PC-3 prostate; 3.3 µM in the test on A549 NSCLC; 2.7 µM in the test with MOLT-4 leukemia; 3.22 µM in the test with HL-60(TB) leukemia. Also, the GI50 in the test on SW-620 colon was 4.6 µM; in the test on HCT-15 colon, 2.48 µM; in the test with U251 CNS, 4.06 µM; in the test with CCRF-CEM leukemia, 3.58 µM. Moreover, the TGI in the test with 786-0 renal is over 100 µM; in the test with HCT-116 colon, 23 µM; in the test on PC-3 prostate it was over 100 µM; with A549 NSCLC, 28.7 µM; in the test with MOLT-4 leukemia, 7.12 µM; with HL-60(TB) leukemia, 18.1 µM. Moreover, the TGI in the test on SW-620 colon, in the test on HCT-15 colon, in the test on U251 CNS and in the test with CCRF-CEM leukemia was over 100 µM throughout.
For `Oc1c(-c2nnc(-c3ccccc3Cl)o2)sc2nnc(-c3ccccc3)c(-c3ccccc3)c12`, the GI50 was 7.22 µM in the test on 786-0 renal; 2.92 µM with HCT-116 colon; 3.15 µM in the test with PC-3 prostate; 4.31 µM in the test with A549 NSCLC; 3.88 µM in the test with MOLT-4 leukemia; 4.16 µM in the test with HL-60(TB) leukemia. Moreover, the GI50 was 4.07 µM in the test on SW-620 colon, 0.813 µM with HCT-15 colon, 2.31 µM in the test on U251 CNS and 1.43 µM in the test with CCRF-CEM leukemia. Further, the TGI with 786-0 renal was over 100 µM; in the test on HCT-116 colon it was 11.4 µM; in the test on PC-3 prostate, over 100 µM; in the test with A549 NSCLC it was 61.5 µM; in the test with MOLT-4 leukemia it was over 100 µM; with HL-60(TB) leukemia it was over 100 µM. Moreover, the TGI was 25.3 µM in the test on SW-620 colon, over 100 µM in the test on HCT-15 colon, over 100 µM in the test with U251 CNS and over 100 µM in the test on CCRF-CEM leukemia.
Turning to `N#Cc1ccc(OCc2nc(N)nc(N)c2-c2ccc(Cl)c(Cl)c2)cc1`, the GI50 in the test on 786-0 renal is 1.48 µM; in the test with HCT-116 colon it was 0.552 µM; in the test with PC-3 prostate, 0.613 µM; in the test on A549 NSCLC, 0.405 µM; in the test with MOLT-4 leukemia, 3.7 µM; in the test with HL-60(TB) leukemia, 0.554 µM. The GI50 in the test on SW-620 colon was 0.484 µM; in the test on HCT-15 colon, 0.525 µM; with U251 CNS it was 0.589 µM; in the test on CCRF-CEM leukemia it was 2.67 µM. Besides, the TGI in the test with 786-0 renal is over 100 µM; in the test with HCT-116 colon, over 100 µM; with PC-3 prostate, over 100 µM; in the test with A549 NSCLC it was 15.8 µM; in the test on MOLT-4 leukemia, 40.8 µM; in the test on HL-60(TB) leukemia it was 24.4 µM. Moreover, the TGI in the test on SW-620 colon, in the test with HCT-15 colon, in the test on U251 CNS and with CCRF-CEM leukemia was over 100 µM throughout.

The values are drawn from PubChem BioAssay (NCI).
